From patent US10501493B2, “Broad spectrum antibiotics” (priority 2011, dated 2019)
Values after ≈ are worked out from the molar mass of the structure shown.

Columns and labels:
E. coli ATCC 25922 = experiment: In vitro antimicrobial activity, MIC by broth micro-dilution; type: cell-based; settings: Escherichia coli, ATCC25922; read-out: MIC class, E. coli ATCC 25922
Procedure: (§1) In vitro antimicrobial activity of each compound was determined by measuring minimal inhibitor concentrations (MICs) using the broth micro-dilution technique as approved by the Clinical and Laboratory Standards Institute (CLSI). The microbiological panel examined contains a number of bacterial species including E. coli MG1655, P. aeruginosa, S. aureus, and S. epidermidis. In addition, the panel includes previously described pseudo-isogenic strains of these four species (P. A. Smith et al. Chem Biol 2010, 1223-1231), in which a specific proline residue in SPase (called LepB in Gram-negative organisms an SpsB in Gram-positive organisms) has been mutated to a different amino acid. The resulting strains have increased susceptibility to the arylomycin class of antibiotics. Analysis of the strains lacking this proline residue will increases the dynamic range of the assay, and comparison of the sensitivities of the isogenic pairs provides ongoing confirmation that the activity gained through derivatization is specific to the inhibition of SPase. Briefly, bacterial streaks were grown on Mueller Hinton Agar II (Difco™) with or without 5% lysed horse blood for a period of 24 hours at either 35° C. or 28° C. Bacterial colonies were suspended in cation adjusted Mueller Hinton broth and diluted to a final concentration of 1*10^7 colony forming units/ml. Two-fold serial dilutions of each compound were arrayed into 96-well plates (100 μl final volume per well) and 5 ul of the bacterial suspension will be added. […] MICs were periodically checked plating serial dilutions of MIC wells and quantitatively determining viable colonies.

[1] = test system: S. aureus NCTC-8325 SpsB(P295); experiment: as above; type: cell-based; settings: Staphylococcus aureus, NCTC8325, read-out: MIC class, S. aureus NCTC-8325 SpsB(P295)
Procedure: as §1

S. epidermidis RP62A = experiment: as above; type: cell-based; settings: Staphylococcus epidermidis, RP62A; read-out: MIC class, S. epidermidis RP62A
Procedure: as §1

S. pneumoniae D39 = experiment: as above; type: cell-based; settings: Streptococcus pneumoniae, D39; read-out: MIC class, S. pneumoniae D39
Procedure: as §1

[2] = test system: E. col ATCC 25922 LepB(P84L); experiment: as above; type: cell-based, E. coli; settings: Escherichia coli, ATCC25922, read-out: MIC class, E. col ATCC 25922 LepB(P84L)
Procedure: as §1

S. aurues NCTC-8325 = experiment: as above; type: cell-based, S. aureus; settings: Staphylococcus aureus, NCTC8325, read-out: MIC class, S. aurues NCTC-8325
Procedure: as §1

E. coli SPase = target: T1, E. coli SPase (Escherichia coli, UniProt P00803); experiment: Enzymatic fluorogenic substrate cleavage assay for IC50; type: biochemical
T1 construct: Full length His-tagged E. coli SPase proteins were expressed in E. coli BL21(DE3); His-tag; made in house; host or cells: E. coli BL21(DE3)
Procedure: (§2) Full length His-tagged E. coli SPase proteins were expressed in E. coli BL21(DE3) containing the plasmid pET23-lepB, P. A. Smith et al. Chem Biol 2010, 1223-1231. Briefly, saturated overnight cultures grown in 20 ml of Luria-Bertani medium supplemented with ampicillin were subcultures into 1.5 L of Luria-Bertani, and shaken at 37° C. until an optical density at 600 nm of 0.4-0.5 was achieved. Protein expression was induced with Isopropyl β-D-1-thiogalactopyranoside (ITPG) at a final concentration of […], and purified using nickel affinity chromatography. Full length His-tagged S. aureus SPase protein was expressed similarly from E. coli BL21(DE3) containing the plasmid pCDF1-SaSpsB or pCDF1-SaSpsB(P29S) and purified similarly to the E. coli protein with the following exceptions. SPase protein was solubilized using 300 mM NaCl, 20 mM Tris pH 8.06, 5 mM Imidazole, 10% glycerol, 1% Triton X-100, prior to purification in Ni-NTA Superflow resin and resin bound protein was washed in a similar buffer containing 1% Elugent in place of Triton X-100 prior to protein eluted in wash buffer supplemented with 300 mM imidazole. Protein purify was judged to exceed 95% by visual inspection of SDS-PAGE followed by Comassie staining. All protein concentrations were determined by BCA assay.
(§3) In addition to the equilibrium binding assays, compound activity is also characterized by measuring inhibition of E. coli and S. aureus substrate cleavage reactions using fluorogenic peptides developed at RQx Pharmaceuticals. Briefly, two fluorogenic peptide substrates (decanoyl-LSSPA Y^NO2 A ? ADK^abzPD (SEQ ID NO: 1) and decanyol-LTPTAY^NO2 A ? ASKK^abzDD (SEQ ID NO: 2)) have been synthesized, where abz is the fluorescence donor 2-aminobenzamide, YNO2 is the fluorescence acceptor 3-nitrotyrosine, and the cleavage site is indicated with an arrow. These substrates are processed with a second order rate constant (Kcat/KM) of 10^5 M^−1s^−1 for E. coli and S. aureus SPase enzymes, and cleavage results in a greater than 10-fold increase in fluorescence signal (excitation at 314 nm, emission at 416 nm) as measured using a SpectraMax M2 fluorescence microplate reader. Two-folder serial dilutions of compound are prepared in cleavage reaction buffer consisting of: 50 mM Tris-HCl pH 8.0, 100 mM NaCl, 10% glycerol, 1 mM EDTA, detergent (1% NP-40 or 0.1% Elugent™ for E. coli LepB or S. aureus SpsB respectively) and either 2.5 nM of E. coli SPase enzyme or 10 nM of S. aureus SPase enzyme. 40 μl aliquots of the compound dilution series in the protein/buffer solution is transferred to black 384-well polypropylene plates, and 10 μl of fluorogenic peptide at a concentration of 100 μM is added to initiate the reaction. The increase in fluorescence, corresponding to substrate cleavage, is monitored continuously at room temperature for 30 minutes and initial reaction rates are calculated based in the linear increase in fluorescence from the initial 30 minutes of the reaction. Reaction rates are plotted as a function of compound concentration, and IC50 values are determined nonlinear regression analysis (SoftMax® Pro v5.4) of the sigmoidal dose-response curve.

S. aureus SPase = target: T2, S. aureus SPase (Staphylococcus aureus, UniProt P0A070); experiment: as above; type: biochemical
T2 construct: Full length His-tagged S. aureus SPase protein was expressed similarly; His-tag; made in house; host or cells: E. coli BL21(DE3)
Procedure: as §2, §3

| Structure (SMILES) | MIC (E. coli ATCC 25922) [µg/mL] | MIC [1] [µg/mL] | MIC (S. epidermidis RP62A) [µg/mL] | MIC (S. pneumoniae D39) [µg/mL] | MIC [2] [µg/mL] | MIC (S. aurues NCTC-8325) [µg/mL] | IC50 (E. coli SPase) [µM] | IC50 (S. aureus SPase) [µM] |
| --- | --- | --- | --- | --- | --- | --- | --- | --- |
| CCCCCCCCCCCCCCCC(=O)N(C)[C@H](CO)C(=O)N[C@H](C)C(=O)NCC(=O)N(C)[C@@H]1C(=O)N[C@@H](C)C(=O)N[C@H](C(=O)NCCOC)Cc2ccc(O)c(c2)-c2cc1ccc2O [Compound 61] | > 64 | > 64 | > 64 | < 8 | 16 to 64 (≈ 17.1 to 68.2 µM) | > 64 | 1 to 10 | > 10 |
| CCCCCCCCCCCCCCCC(=O)N(C)C(CO)C(=O)N[C@H](C)C(=O)NCC(=O)N(C)[C@@H]1C(=O)N[C@@H](C)C(=O)NC(C(=O)NCC(O)CO)Cc2ccc(O)c(c2)-c2cc1ccc2O (stereo partly shown) [Compound 62] | > 64 | > 64 | > 64 | 16 to 64 (≈ 16.8 to 67.1 µM) | 16 to 64 (≈ 16.8 to 67.1 µM) | > 64 | 1 to 10 | > 10 |
| CCCCCCCCCCCCCCCC(=O)N(C)[C@H](CO)C(=O)N[C@H](C)C(=O)NCC(=O)N(C)[C@@H]1C(=O)N[C@@H](C)C(=O)N[C@H](C(=O)N[C@H](C)CO)Cc2ccc(O)c(c2)-c2cc1ccc2O [Compound 63] | > 64 | > 64 | 16 to 64 (≈ 17.1 to 68.2 µM) | 16 to 64 (≈ 17.1 to 68.2 µM) | > 64 | > 64 | > 10 | > 10 |
| CCCCCCCCCCCCCCCC(=O)N(C)[C@H](CO)C(=O)N[C@H](C)C(=O)NCC(=O)N(C)[C@@H]1C(=O)N[C@@H](C)C(=O)N[C@H](C(=O)NC[C@H](C)O)Cc2ccc(O)c(c2)-c2cc1ccc2O [Compound 64] | > 64 | > 64 | < 8 | < 8 | 16 to 64 (≈ 17.1 to 68.2 µM) | > 64 | 1 to 10 | > 10 |
| CCCCCCCCCCCCCCCC(=O)N(C)[C@H](CO)C(=O)N[C@H](C)C(=O)NCC(=O)N(C)[C@@H]1C(=O)N[C@@H](C)C(=O)N[C@H](C(=O)NC[C@@H](C)O)Cc2ccc(O)c(c2)-c2cc1ccc2O [Compound 65] | > 64 | > 64 | < 8 | 16 to 64 (≈ 17.1 to 68.2 µM) | 16 to 64 (≈ 17.1 to 68.2 µM) | > 64 | < 1 | 1 to 10 |
| CCCCCCCCCCCCCCCC(=O)N(C)[C@H](CO)C(=O)N[C@H](C)C(=O)NCC(=O)N(C)[C@@H]1C(=O)N[C@@H](C)C(=O)N[C@H](C(=O)N[C@@H](CO)C(C)C)Cc2ccc(O)c(c2)-c2cc1ccc2O [Compound 66] | > 64 | > 64 | 16 to 64 (≈ 16.6 to 66.2 µM) | 16 to 64 (≈ 16.6 to 66.2 µM) | 16 to 64 (≈ 16.6 to 66.2 µM) | > 64 | 1 to 10 | > 10 |
| CCCCCCCCCCCCCCCC(=O)N(C)[C@H](CO)C(=O)N[C@H](C)C(=O)NCC(=O)N(C)[C@@H]1C(=O)N[C@@H](C)C(=O)N[C@H](C(=O)NC(CO)CO)Cc2ccc(O)c(c2)-c2cc1ccc2O [Compound 67] | > 64 | > 64 | 16 to 64 (≈ 16.8 to 67.1 µM) | 16 to 64 (≈ 16.8 to 67.1 µM) | 16 to 64 (≈ 16.8 to 67.1 µM) | > 64 | > 10 | > 10 |
| CCCCCCCCCCCCCCCC(=O)N(C)[C@H](CO)C(=O)N[C@H](C)C(=O)NCC(=O)N(C)[C@@H]1C(=O)N[C@@H](C)C(=O)N[C@H](C(=O)N[C@H](CO)C(C)O)Cc2ccc(O)c(c2)-c2cc1ccc2O (stereo partly shown) [Compound 68] | > 64 | > 64 | 16 to 64 (≈ 16.5 to 66.1 µM) | 16 to 64 (≈ 16.5 to 66.1 µM) | 16 to 64 (≈ 16.5 to 66.1 µM) | > 64 | 1 to 10 | > 10 |
| CCCCCCCCCCCCCCCC(=O)N(C)[C@H](CO)C(=O)N[C@H](C)C(=O)NCC(=O)N(C)[C@@H]1C(=O)N[C@@H](C)C(=O)N[C@H](C(=O)N[C@H](CO)CCC)Cc2ccc(O)c(c2)-c2cc1ccc2O [Compound 69] | > 64 | > 64 | 16 to 64 (≈ 16.6 to 66.2 µM) | 16 to 64 (≈ 16.6 to 66.2 µM) | < 8 | > 64 | 1 to 10 | > 10 |
| CCCCCCCCCCCCCCCC(=O)N(C)[C@H](CO)C(=O)N[C@H](C)C(=O)NCC(=O)N(C)[C@@H]1C(=O)N[C@@H](C)C(=O)N[C@H](C(=O)NC(CO)(CO)CO)Cc2ccc(O)c(c2)-c2cc1ccc2O [Compound 70] | > 64 | > 64 | < 8 | 16 to 64 (≈ 16.3 to 65 µM) | < 8 | > 64 | < 1 | > 10 |
| CCCCCCCCCCCCCCCC(=O)N(C)[C@H](CO)C(=O)N[C@H](C)C(=O)NCC(=O)N(C)[C@@H]1C(=O)N[C@@H](C)C(=O)N[C@H](C(=O)N[C@H](CO)Cc2cnc[nH]2)Cc2ccc(O)c(c2)-c2cc1ccc2O [Compound 71] | > 64 | > 64 | > 64 | 16 to 64 (≈ 15.9 to 63.7 µM) | > 64 | > 64 | > 10 | > 10 |
| CCCCCCCCCCCCCCNC(=O)N(C)[C@H](CO)C(=O)N[C@H](C)C(=O)NCC(=O)N(C)[C@@H]1C(=O)N[C@@H](C)C(=O)N[C@H](C(=O)O)Cc2ccc(O)c(c2)-c2cc1ccc2O [Compound 72] | > 64 | 16 to 64 (≈ 18.1 to 72.6 µM) | < 8 | 16 to 64 (≈ 18.1 to 72.6 µM) | < 8 | > 64 | < 1 | < 1 |
| CCCCCCCCCCCCCCCC(=O)N(C)[C@H](CO)C(=O)N[C@H](C)C(=O)NCC(=O)N(C)[C@@H]1C(=O)N[C@@H](C)C(=O)N[C@H](C(=O)N[C@H](CO)Cc2c[nH]c3ccccc23)Cc2ccc(O)c(c2)-c2cc1ccc2O [Compound 74] | > 64 | > 64 | > 64 | 16 to 64 (≈ 15.2 to 60.8 µM) | > 64 | > 64 | 1 to 10 | > 10 |
| CCCCCCCCCCCCCCCC(=O)N(C)[C@H](CO)C(=O)N[C@H](C)C(=O)NCC(=O)N(C)[C@@H]1C(=O)N[C@@H](C)C(=O)N[C@H](C(=O)NCC(O)C(=O)OC)Cc2ccc(O)c(c2)-c2cc1ccc2O (stereo partly shown) [Compound 75] | > 64 | > 64 | < 8 | < 8 | < 8 | > 64 | < 1 | > 10 |
